Assay results reported in ChEMBL document CHEMBL1201862, “PubChem BioAssay data set” (2004).
Activity calls are given as the source filed them.

Experiments:
[1] = target: T1, Long-chain-fatty-acid--AMP ligase FadD28 (Mycobacterium tuberculosis, UniProt P9WQ59); assay: Fluorescence polarization aasay to screen for inhibitors that compete for the binding of FadD28 to a bisubstrate Measured in Biochemical System Using Plate Reader - 2147-01_Inhibitor_Dose_CherryPick_Activity.; type: functional, Mycobacterium tuberculosis H37Rv
T1 sequence (P9WQ59 whole entry): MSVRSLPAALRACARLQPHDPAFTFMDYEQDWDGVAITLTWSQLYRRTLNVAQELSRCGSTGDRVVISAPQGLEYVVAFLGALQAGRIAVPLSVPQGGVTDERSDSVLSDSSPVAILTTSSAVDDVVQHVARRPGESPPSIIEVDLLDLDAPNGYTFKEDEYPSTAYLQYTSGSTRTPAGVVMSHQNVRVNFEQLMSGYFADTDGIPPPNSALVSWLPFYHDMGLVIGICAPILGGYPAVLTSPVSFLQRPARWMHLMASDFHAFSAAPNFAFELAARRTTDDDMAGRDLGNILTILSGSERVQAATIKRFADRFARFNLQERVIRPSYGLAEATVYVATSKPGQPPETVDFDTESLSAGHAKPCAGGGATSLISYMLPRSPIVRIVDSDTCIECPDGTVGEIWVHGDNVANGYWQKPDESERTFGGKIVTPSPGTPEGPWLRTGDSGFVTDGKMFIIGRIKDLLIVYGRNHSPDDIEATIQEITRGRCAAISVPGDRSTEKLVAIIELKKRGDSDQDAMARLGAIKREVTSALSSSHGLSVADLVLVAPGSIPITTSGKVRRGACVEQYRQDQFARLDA

[2] = viability of uninfected HEp-2 cells – cell-based, HTS, cytotoxicity control for RSV inhibitor project, dose response (AID 2410); type: functional; conditions: human respiratory syncytial virus
[3] = target: Intestinal-type alkaline phosphatase (Homo sapiens, UniProt P09923); assay: inhibition of human intestinal alkaline phosphatase – biochemical, dose response (AID 488876); type: functional
Sequence of Intestinal-type alkaline phosphatase (Homo sapiens, UniProt P09923) (P09923 whole entry): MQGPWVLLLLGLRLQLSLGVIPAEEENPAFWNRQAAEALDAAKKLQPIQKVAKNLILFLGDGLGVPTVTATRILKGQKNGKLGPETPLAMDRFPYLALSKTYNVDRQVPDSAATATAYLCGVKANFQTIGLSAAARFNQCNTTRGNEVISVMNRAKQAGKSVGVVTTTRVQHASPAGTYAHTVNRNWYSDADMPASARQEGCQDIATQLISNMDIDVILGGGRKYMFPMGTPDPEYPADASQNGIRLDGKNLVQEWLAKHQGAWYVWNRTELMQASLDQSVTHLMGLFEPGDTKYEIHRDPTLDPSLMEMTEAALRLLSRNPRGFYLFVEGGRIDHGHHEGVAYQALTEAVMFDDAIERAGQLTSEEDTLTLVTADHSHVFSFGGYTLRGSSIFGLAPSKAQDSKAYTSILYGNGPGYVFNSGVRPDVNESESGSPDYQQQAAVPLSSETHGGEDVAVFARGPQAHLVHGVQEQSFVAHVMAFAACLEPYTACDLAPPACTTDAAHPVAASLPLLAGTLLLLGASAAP

[4] = cells
[5] = target: Intestinal-type alkaline phosphatase (Mus musculus, UniProt P24822); assay: PubChem AID 488785; type: functional
Sequence of Intestinal-type alkaline phosphatase (Mus musculus, UniProt P24822) (P24822 whole entry): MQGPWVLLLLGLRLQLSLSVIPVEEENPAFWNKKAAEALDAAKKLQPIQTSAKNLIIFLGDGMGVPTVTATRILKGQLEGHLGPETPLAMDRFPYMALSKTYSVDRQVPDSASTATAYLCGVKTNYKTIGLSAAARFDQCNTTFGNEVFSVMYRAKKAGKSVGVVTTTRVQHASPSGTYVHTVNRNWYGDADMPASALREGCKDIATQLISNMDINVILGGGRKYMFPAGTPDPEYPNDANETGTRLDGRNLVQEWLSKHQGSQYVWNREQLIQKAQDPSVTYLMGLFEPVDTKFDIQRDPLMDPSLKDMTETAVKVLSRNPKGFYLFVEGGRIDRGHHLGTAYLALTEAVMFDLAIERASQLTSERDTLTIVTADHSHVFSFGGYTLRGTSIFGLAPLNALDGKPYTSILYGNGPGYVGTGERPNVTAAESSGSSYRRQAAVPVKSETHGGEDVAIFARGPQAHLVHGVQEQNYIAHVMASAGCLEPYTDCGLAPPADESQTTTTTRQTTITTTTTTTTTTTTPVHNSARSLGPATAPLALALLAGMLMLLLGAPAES

[6] = target: T2, Alkaline phosphatase, tissue-nonspecific isozyme (Homo sapiens, UniProt P05186); assay: TNAP enzyme inhibition by screening hits, dose response, selectivity assay for mouse IAP inhibitor project, biochemical, human TNAP, uHTS hits (AID 488906); type: functional
T2 sequence (P05186 whole entry): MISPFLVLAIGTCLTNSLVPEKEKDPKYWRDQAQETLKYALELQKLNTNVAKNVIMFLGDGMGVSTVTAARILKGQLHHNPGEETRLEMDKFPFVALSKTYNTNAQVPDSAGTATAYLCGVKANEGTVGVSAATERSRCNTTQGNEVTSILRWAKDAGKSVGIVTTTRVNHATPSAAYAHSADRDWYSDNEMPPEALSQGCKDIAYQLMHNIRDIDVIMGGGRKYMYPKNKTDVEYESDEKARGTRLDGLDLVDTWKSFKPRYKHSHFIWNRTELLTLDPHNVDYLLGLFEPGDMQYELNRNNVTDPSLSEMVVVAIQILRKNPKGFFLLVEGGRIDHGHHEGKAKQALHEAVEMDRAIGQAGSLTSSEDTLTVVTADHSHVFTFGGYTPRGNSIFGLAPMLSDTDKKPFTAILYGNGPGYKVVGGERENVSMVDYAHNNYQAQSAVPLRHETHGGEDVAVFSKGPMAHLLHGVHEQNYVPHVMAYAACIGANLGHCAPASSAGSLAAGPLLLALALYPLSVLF

[7] = T. cruzi growth inhibition in host cells, dose response, cell-based, plate reader, dry powder, set 2 (AID 652275); type: functional
[8] = toxicity to human HepG2 hepatoma cells – cell-based, plate reader, dry powder samples, cytotoxicity control, dose response (AID 1159569); type: functional;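 also: inhibitor potency with signal falling toward the positive control level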
[9] = Dd2 malaria parasite growth inhibition potency – SYBR Green, dry powder samples, dose response (AID 1159566); type: functional, cell-based;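 also: potency for growth inhibition with lower SYBR green DNA signal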
[10] = growth inhibition of yeast DHODH-expressing 3D7 parasites – SYBR Green, dry powder samples, dose response (AID 1159570); type: functional, cell-based;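 also: parasite growth measured after 72 hours of compound exposure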
[11] = growth inhibition of PfATP4-mutant resistant parasites – NITD609-resistant line, SYBR Green, dry powder, dose response (AID 1159571); type: functional, cell-based;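 also: parasites synchronized at ring stage by sorbitol before testing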
[12] = P. falciparum Dd2 growth inhibitors, dose response, SYBR Green, cherry-picked samples (AID 1159567); type: functional, cell-based
[13] = target: T3, Endoribonuclease toxin MazF (Escherichia coli K-12, UniProt P0AE70); assay: activation of MazEF endoribonuclease cleavage – biochemical, fluorescence, single-stranded RNA substrate, uHTS hits, dose response (AID 588481); type: functional
T3 sequence (P0AE70 whole entry): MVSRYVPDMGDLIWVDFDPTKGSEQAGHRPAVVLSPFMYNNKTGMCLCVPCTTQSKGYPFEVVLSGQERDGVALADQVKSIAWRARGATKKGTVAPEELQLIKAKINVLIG

[14] = target: T3, Endoribonuclease toxin MazF; assay: substrate-only fluorescence increase artefacts – biochemical, single-stranded RNase substrate, counter-screen for MazEF activator project, dose response (AID 588502); type: functional
[15] = target: Paired box protein Pax-8 (Homo sapiens, UniProt Q06710); assay: PAX8 transcriptional activity inhibition in RMG-I – RMG-I cells, luciferase, cherry-pick, dose response (AID 687027); type: functional, cell-based;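 also: luciferase reporter driven by Pax8 target thyroperoxidase promoter measured by SteadyGlo luminescence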
Sequence of Paired box protein Pax-8 (Q06710 whole entry): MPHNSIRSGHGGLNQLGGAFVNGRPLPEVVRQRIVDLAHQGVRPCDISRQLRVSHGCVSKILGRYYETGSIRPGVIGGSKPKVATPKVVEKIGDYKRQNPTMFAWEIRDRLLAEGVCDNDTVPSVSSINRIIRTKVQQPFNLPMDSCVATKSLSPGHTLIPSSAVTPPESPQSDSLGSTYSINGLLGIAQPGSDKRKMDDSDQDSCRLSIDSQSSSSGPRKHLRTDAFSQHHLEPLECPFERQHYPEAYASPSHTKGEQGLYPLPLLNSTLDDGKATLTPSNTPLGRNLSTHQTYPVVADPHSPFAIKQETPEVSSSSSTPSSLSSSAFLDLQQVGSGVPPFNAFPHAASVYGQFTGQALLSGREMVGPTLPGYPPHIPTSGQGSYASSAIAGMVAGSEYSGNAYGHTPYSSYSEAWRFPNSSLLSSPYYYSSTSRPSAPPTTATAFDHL

[16] = OVCAR-3 cell viability loss – plate reader, dry powder samples, PAX8 inhibitor project, dose response (AID 743044); type: functional, cell-based
[17] = OVCAR8 cell viability loss – plate reader, dry powder samples, PAX8 project, dose response (AID 743197); type: functional, cell-based; conditions: OVCAR-8
[18] = viability of PTEN-deleted HCT116 cells – cell-based, HCT116 PTEN knockout, dose response (AID 1047); type: functional;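 also: HCT116 colon tumor cells with PTEN knocked out; cells exposed to compound for 60 hours before readout; potency for loss of cell viability measured by luminescence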
[19] = viability loss in HepG2 hepatoma cells – cell-based, ATP luminescence, cherry-pick, activator set 2, cytotoxicity control, dose response (AID 1053143); type: functional
[20] = target: Cytochrome P450 2C19 (Homo sapiens, UniProt P33261); assay: Cytochrome panel assay with activity outcomes. Panel member name: p450-cyp2c19 Compounds with AC50 equal or less than 10 uM are considered active; type: functional; conditions: read-out: AC50
Sequence of Cytochrome P450 2C19 (P33261 whole entry): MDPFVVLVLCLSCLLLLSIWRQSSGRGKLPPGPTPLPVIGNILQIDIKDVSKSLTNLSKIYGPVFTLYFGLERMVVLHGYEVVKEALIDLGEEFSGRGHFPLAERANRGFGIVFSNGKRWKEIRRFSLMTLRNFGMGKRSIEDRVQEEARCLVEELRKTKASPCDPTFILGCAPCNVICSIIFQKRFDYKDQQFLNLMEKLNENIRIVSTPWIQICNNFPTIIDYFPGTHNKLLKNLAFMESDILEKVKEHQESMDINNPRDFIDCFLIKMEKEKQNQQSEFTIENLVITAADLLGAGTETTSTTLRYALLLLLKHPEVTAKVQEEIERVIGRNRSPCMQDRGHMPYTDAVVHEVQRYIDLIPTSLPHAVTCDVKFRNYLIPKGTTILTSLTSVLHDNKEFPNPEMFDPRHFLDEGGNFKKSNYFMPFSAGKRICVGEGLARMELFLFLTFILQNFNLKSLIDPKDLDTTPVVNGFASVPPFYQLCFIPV

[21] = NIH3T3 cell viability loss – ATP luminescence, mouse fibroblasts, counter-screen, dose response (AID 2010); type: functional, cell-based;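 also: cells exposed to compound for about 90 hours before reading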
[22] = viability of HCT116 lacking mutant beta-catenin – cell-based, human colon tumor, dose response (AID 1045); type: functional;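 also: HCT116 colon tumor cells with beta catenin knocked out; cells exposed to compound for 60 hours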
[23] = Trypanosoma cruzi growth suppression in host cells – NIH3T3 host cells, beta-gal luminescence, confirmation (AID 2044); type: functional, cell-based;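 also: intracellular parasites grown in NIH/3T3 mouse fibroblasts as host cells; luminescent beta-galactosidase reporter signal from transgenic T. cruzi replicating inside host cells; inhibitors lower the luminescence signal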
[24] = test system: INS1; assay: INS-1E survival protection against cytokine death – cell-based, luminescence, retest, dose response (AID 449756); type: functional; conditions: Rattus norvegicus;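 also: cell death triggered by IL-1 beta plus TNF-alpha plus IFN-gamma mixture; protective hits raise ATP signal compared with cytokine alone wells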
[25] = target: T4, Small ubiquitin-related modifier 1 (Homo sapiens, UniProt P63165); assay: SUMO1 protein interaction blockers, potency – biochemical, fluorescence polarization, uHTS hits, dose response (AID 624382); type: functional; conditions: read-out: IC50_Mean
T4 sequence (P63165 whole entry): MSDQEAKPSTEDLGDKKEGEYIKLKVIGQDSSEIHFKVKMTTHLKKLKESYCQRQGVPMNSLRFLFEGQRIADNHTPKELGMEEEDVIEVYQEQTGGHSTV

[26] = target: T4, Small ubiquitin-related modifier 1; assay: SUMO1 protein-protein binding blockers, potency – biochemical, FRET, dose response (AID 624383); type: functional; conditions: read-out: IC50_Mean
[27] = bead-based luminescence quenchers, dual-tagged ARNT – biochemical, AlphaScreen, cherry-pick, artefact control for ARNT-TACC3 interaction inhibitor project, dose response (AID 651705); type: functional;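 also: AlphaScreen bead proximity signal that flags compounds interfering with the detection technology; potency reflects signal decrease which marks the compound as an assay artifact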

Compound: COc1cccc(-c2ncc3ccccc3c2CO)c1
- AC50 [1]: 38 µM (active)

Compound: Cc1ccc(S(=O)(=O)N2CCC(C(=O)Nc3ccc(C(C)C)cc3)CC2)cc1
- CC50 [2]: 13 µM (active)
- IC50 [3]: > 100 µM (inactive)
- IC50 [4]: 40.7 µM (active)
- IC50 [5]: 7.81 µM (active)
- IC50 [6]: > 100 µM (inactive)

Compound: C[C@@H]1CCCCO[C@H](CN(C)Cc2ccc(Cl)c(Cl)c2)[C@@H](C)CN([C@H](C)CO)C(=O)c2cc(N(C)C)ccc2O1
- AC50 [7]: 2.73 µM (active)

Compound: COc1ccc(C#Cc2ccc3c(c2)[C@H]2[C@H](CCN2Cc2nccs2)[C@@H](CO)N3)cc1
- AC50 [8]: 74.7 µM (active)
- AC50 [9]: 2.06 µM (active)
- AC50 [10]: 3.44 µM (active)
- AC50 [11]: 2.52 µM (active)
- AC50 [12]: 1.9 µM (active)

Compound: O=c1[nH]cnc2scc(-c3ccc(-c4ccccc4)cc3)c12
- EC50 [13]: > 99 µM (inactive)
- EC50 [14]: > 99 µM (inactive)

Compound: CCCCCCSC1=C(C#N)C(=O)NC2(CCCCC2)S1
- AC50 [1]: > 100 µM (inactive)

Compound: C[C@@H]1CN([C@H](C)CO)C(=O)c2cc(NC(=O)Nc3ccc(C(F)(F)F)cc3)ccc2O[C@@H](C)CCCCO[C@@H]1CN(C)C(=O)c1ccccc1
- AC50 [15]: 5.42 µM (active)
- AC50 [16]: 7.17 µM (active)
- AC50 [17]: > 70 µM (inactive)

Compound: O=C(/C(=C/c1ccc(Cl)cc1)c1nc2ccccc2[nH]1)c1ccccc1
- EC50 [18]: 3.64 µM (active)
- AC50 [19]: 7.94 µM (active)
- AC50 [20]: 1.58 µM (inconclusive)
- EC50 [21]: > 60 µM (not active)
- EC50 [22]: 3.11 µM (active)
- EC50 [23]: 0.824 µM (active)
- AC50 [24]: 2.98 µM (active)

Compound: Nc1nccnc1C(=O)OCC(=O)Nc1ccc2[nH]c(O)nc2c1
- IC50 [25]: > 66.6 µM (inactive)
- IC50 [26]: 11.9 µM (active)

Compound: NCCc1c[nH]cn1 [HISTAMINE]
- AC50 [27]: 106 µM (active)
